# In patent publication US5284774A (priority 1991, dated 1994):
# Values joined by “and” are separate entries in the source; they are usually repeats but may differ in a detail not shown here. Equal values may be shown once. “Also recorded” adds a separate entry of the source. Read-outs that look alike come from different tables or passages of the source.
# Tests used:
# [1] = molecular target: T1, System L (Mus musculus, UniProt Q9Z127); assay type: cell-based, murine
# T1 construct: Murine L1210 Leukemia cells were grown in RPMI 1630 medium; endogenous in cells; host or cells: murine L1210 leukemia cells
# T1 sequence (Q9Z127 whole entry): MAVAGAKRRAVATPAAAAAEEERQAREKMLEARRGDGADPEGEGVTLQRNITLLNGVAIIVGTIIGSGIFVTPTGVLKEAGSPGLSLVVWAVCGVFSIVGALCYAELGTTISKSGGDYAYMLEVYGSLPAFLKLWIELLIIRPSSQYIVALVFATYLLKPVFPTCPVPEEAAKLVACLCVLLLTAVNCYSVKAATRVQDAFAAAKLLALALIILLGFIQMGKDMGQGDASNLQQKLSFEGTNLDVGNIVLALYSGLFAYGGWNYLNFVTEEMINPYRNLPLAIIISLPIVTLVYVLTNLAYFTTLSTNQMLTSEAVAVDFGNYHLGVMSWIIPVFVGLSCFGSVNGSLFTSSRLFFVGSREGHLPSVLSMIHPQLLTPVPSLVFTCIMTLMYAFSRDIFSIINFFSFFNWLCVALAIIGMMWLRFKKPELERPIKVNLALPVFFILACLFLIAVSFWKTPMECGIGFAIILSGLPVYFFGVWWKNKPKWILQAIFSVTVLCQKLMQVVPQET
# T1 sequence (P10852 whole entry partner): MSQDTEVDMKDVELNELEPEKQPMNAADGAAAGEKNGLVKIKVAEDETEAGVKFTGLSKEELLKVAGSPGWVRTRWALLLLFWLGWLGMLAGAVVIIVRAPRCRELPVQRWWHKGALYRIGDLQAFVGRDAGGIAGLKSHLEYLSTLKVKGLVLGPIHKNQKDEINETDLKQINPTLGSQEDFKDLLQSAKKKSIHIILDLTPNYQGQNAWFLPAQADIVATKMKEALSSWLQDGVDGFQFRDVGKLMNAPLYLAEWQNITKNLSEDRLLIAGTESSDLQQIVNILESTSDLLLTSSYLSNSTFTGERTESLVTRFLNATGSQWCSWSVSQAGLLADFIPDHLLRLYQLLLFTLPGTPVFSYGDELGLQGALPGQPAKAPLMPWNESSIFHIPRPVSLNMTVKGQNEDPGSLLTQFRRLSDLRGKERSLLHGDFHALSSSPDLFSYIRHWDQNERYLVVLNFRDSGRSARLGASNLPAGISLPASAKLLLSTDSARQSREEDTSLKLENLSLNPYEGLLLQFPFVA
# [2] = tested on: murine L1210 leukemia cells; assay type: cell-based; conditions: for IC90: l1210 cells, 45 min, read-out: LD90, murine L1210 leukemia cells (antitumor activity)
# [3] = tested on: murine CFU-C; conditions: for CC90: mouse, bone marrow cfu-c, 0.75 h
# [4] = dulbecco's phosphate buffered saline
# [5] = read-out: KI, inhibition of initial rate of transport of BCH
# [6] = read-out: Ki, competitive inhibition of BCH transport
Compound,KI lower / affinity for System L greater than that of L-phenylalanine mustard [1] [fold],inhibition of System L (in words) [1],more effective inhibitor of System L than BCH [1],"more potent than 2-amino-1,2,3,4-tetrahydro-2-naphthoic acid [1]","Ki [1, 5] [µM]","Ki [1, 6] [µM]",antitumor activity (in words) [2],improvement in therapeutic index [2],IC90 [2] [µM],myelosuppressive activity (in words) [3],CC90 [3] [µM],half life (t1/2) [4]
"NC1(C(=O)O)CCc2ccc(N(CCCl)CCCl)cc2C1 (racemic) [Compound 6, DL-2-Amino-7-bis(2-chloroethyl)amino-1,2,3,4-tetrahydro-2-naphthoic acid]",500,extremely potent competitive inhibitor; also recorded: most potent inhibitor of System L,25-50 fold,approximately 40 fold,~0.2,0.22,enhanced antitumor activity,2-2.5 fold and 2 fold,26.5,reduced myelosuppressive activity,23.8,approximately 40 minutes
"NC1(C(=O)O)CCc2c(cccc2N(CCCl)CCCl)C1 (racemic) [Compound 7, DL-2-Amino-5-bis-(2-chloroethyl) amino-1,2,3,4-tetrahydro-2-naphthoic acid]",–,weaker inhibitor,–,–,15.2,–,–,–,–,–,–,–
"L-phenylalanine mustard [L-PAM, reference compound]",–,–,–,–,–,112,–,–,35,–,14,–
